Experimental data as given in article PMC12073402, “A Selective MAP3K1 Inhibitor Facilitates Discovery of NPM1 as a Member of the Network” (Molecules, 2025).

Columns and labels:
Assay in all cases: KiNativ kinome profiling in PANC-1 lysate
Format in all cases: binding
PKCd = biological target: T1, PKCd (Homo sapiens, UniProt Q05655)
T1 construct: endogenous in cells; host or cells: PANC-1 cell lysate
How it was run: (§1)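 PANC-1 lysates were incubated with 5 μM inhibitor or DMSO, then labeled with a desthiobiotin-ATP acyl-phosphate probe that biotinylates conserved kinase lysines. Tryptic peptides were streptavidin-enriched and quantified by LC-MS/MS, reported as % change in MS signal from duplicate treated and duplicate control samples.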

CaMKK1 = biological target: T2, CaMKK1 (Homo sapiens, UniProt Q8N5S9); conditions: Lys2
T2 construct: endogenous in cells; host or cells: PANC-1 cell lysate
How it was run: as §1

PIK3CD = biological target: T3, PIK3CD (Homo sapiens, UniProt O00329); conditions: ATP
T3 construct: endogenous in cells; host or cells: PANC-1 cell lysate
How it was run: as §1

MAP3K1 = biological target: T4, MAP3K1 (Homo sapiens, UniProt Q13233)
T4 construct: endogenous in cells; host or cells: PANC-1 cell lysate
How it was run: as §1

p70S6K = biological target: T5, p70S6K (Homo sapiens, UniProt P23443); conditions: Lys2
T5 construct: endogenous in cells; host or cells: PANC-1 cell lysate
How it was run: as §1

MARK4 = biological target: T6, MARK4 (Homo sapiens, UniProt Q96L34)
T6 construct: endogenous in cells; host or cells: PANC-1
How it was run: as §1

[1] = test system: FGFR1, FMS, PDGFRb, TYRO3; conditions: 5 µM; Lys1; VAVKMLK
How it was run: as §1

CDC2 = biological target: T7, CDC2 (Homo sapiens, UniProt P06493)
T7 construct: endogenous in cells; host or cells: PANC-1 cell lysate
How it was run: as §1

CHK1 = biological target: T8, CHK1 (Homo sapiens, UniProt O14757); conditions: Lys2
T8 construct: endogenous in cells; host or cells: PANC-1 cell lysate
How it was run: as §1

ULK1 = biological target: T9, ULK1 (Homo sapiens, UniProt O75385); conditions: Lys2
T9 construct: endogenous in cells; host or cells: PANC-1 cell lysate
How it was run: as §1

CHK2 = biological target: T10, CHK2 (Homo sapiens, UniProt O96017)
T10 construct: endogenous in cells; host or cells: PANC-1 cell lysate
How it was run: as §1

YES = biological target: T11, YES (Homo sapiens, UniProt P07947); conditions: Lys1
T11 construct: endogenous in cells; host or cells: PANC-1 cell lysate
How it was run: as §1

DGKA = biological target: T12, DGKA (Homo sapiens, UniProt P23743); conditions: ATP
T12 construct: endogenous in cells; host or cells: PANC-1 lysate
How it was run: as §1

MAP2K1, MAP2K2 = conditions: 5 µM
How it was run: as §1

MET = biological target: T13, MET (Homo sapiens, UniProt P08581); conditions: ATP Loop
T13 construct: endogenous in cells; host or cells: PANC-1
How it was run: as §1

PIP4K2A = biological target: T14, PIP4K2A (Homo sapiens, UniProt P48426); conditions: ATP
T14 construct: endogenous in cells; host or cells: PANC-1 cell lysate
How it was run: as §1

MER, TYRO3 = conditions: 5 µM; ATP Loop; KIYSGDYYR
How it was run: as §1

NEK1 = biological target: T15, NEK1 (Homo sapiens, UniProt Q96PY6)
T15 construct: endogenous in cells; host or cells: PANC-1 cell lysate
How it was run: as §1

STLK5 = biological target: T16, STLK5 (Homo sapiens, UniProt Q7RTN6)
T16 construct: endogenous in cells; host or cells: PANC-1 cell lysate
How it was run: as §1

CDK11, CDK8 = conditions: 5 µM; Lys2; DLKPANILVMGEGPER
How it was run: as §1

PI4KB = biological target: T17, PI4KB (Homo sapiens, UniProt Q9UBF8); conditions: ATP
T17 construct: endogenous in cells; host or cells: PANC-1 cell lysate
How it was run: as §1

EphA2 = biological target: T18, EphA2 (Homo sapiens, UniProt P29317); conditions: ATP Loop
T18 construct: endogenous in cells; host or cells: PANC-1 lysate
How it was run: as §1

p38d, p38g = conditions: 5 µM; Lys2; DLKPGNLAVNEDCELK
How it was run: as §1

MAP3K6 = biological target: T19, MAP3K6 (Homo sapiens, UniProt O95382)
T19 construct: endogenous in cells; host or cells: PANC-1 cell lysate
How it was run: as §1

MST3 = biological target: T20, MST3 (Homo sapiens, UniProt Q9Y6E0); conditions: Lys2
T20 construct: endogenous in cells; host or cells: PANC-1
How it was run: as §1

T4 sequence (Q13233 whole entry): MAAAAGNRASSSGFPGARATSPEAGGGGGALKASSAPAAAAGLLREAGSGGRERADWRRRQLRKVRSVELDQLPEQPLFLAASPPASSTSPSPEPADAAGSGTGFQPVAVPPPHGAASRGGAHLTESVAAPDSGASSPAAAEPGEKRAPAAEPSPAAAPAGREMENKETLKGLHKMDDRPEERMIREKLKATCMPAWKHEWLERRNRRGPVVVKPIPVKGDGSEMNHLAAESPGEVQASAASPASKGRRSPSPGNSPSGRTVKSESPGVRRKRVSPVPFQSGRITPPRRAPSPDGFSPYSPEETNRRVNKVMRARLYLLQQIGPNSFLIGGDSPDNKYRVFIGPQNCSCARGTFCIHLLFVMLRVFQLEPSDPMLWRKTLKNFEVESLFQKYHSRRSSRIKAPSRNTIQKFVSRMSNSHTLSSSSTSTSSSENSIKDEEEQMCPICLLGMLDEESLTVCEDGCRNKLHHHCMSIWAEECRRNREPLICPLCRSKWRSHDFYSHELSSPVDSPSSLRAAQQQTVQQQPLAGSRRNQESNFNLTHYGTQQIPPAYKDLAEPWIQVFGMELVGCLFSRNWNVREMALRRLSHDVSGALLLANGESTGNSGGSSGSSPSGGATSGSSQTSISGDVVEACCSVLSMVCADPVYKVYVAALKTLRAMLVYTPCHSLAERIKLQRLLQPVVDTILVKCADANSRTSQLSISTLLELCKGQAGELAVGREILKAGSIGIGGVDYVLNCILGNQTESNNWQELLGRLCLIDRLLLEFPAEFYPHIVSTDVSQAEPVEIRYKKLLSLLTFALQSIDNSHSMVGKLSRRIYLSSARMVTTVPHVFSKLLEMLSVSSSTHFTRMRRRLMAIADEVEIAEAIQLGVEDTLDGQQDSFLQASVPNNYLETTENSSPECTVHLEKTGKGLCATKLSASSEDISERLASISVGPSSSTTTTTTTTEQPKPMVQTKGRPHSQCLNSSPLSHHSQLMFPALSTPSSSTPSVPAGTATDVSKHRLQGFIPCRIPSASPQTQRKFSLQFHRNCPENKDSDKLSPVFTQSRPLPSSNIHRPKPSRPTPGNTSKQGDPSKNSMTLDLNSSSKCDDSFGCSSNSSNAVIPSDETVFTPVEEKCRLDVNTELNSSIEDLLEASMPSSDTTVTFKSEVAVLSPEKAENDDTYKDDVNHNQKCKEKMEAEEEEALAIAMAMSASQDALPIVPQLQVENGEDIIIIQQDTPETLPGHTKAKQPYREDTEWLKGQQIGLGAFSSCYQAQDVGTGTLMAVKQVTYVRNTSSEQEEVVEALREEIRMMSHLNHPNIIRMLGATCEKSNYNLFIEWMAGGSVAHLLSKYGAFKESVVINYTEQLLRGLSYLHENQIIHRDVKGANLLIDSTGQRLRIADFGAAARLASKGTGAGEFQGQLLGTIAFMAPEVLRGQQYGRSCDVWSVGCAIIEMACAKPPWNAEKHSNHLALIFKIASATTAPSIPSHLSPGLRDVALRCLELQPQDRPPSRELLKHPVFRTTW
T7 sequence (P06493 whole entry): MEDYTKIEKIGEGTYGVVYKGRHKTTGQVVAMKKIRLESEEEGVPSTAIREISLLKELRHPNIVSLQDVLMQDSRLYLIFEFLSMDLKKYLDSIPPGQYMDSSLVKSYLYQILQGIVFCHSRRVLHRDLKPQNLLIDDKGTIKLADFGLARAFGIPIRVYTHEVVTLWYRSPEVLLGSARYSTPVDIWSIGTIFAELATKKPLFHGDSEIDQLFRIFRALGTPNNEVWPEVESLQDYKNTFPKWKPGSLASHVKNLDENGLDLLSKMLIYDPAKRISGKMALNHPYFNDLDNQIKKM
T15 sequence (Q96PY6 whole entry): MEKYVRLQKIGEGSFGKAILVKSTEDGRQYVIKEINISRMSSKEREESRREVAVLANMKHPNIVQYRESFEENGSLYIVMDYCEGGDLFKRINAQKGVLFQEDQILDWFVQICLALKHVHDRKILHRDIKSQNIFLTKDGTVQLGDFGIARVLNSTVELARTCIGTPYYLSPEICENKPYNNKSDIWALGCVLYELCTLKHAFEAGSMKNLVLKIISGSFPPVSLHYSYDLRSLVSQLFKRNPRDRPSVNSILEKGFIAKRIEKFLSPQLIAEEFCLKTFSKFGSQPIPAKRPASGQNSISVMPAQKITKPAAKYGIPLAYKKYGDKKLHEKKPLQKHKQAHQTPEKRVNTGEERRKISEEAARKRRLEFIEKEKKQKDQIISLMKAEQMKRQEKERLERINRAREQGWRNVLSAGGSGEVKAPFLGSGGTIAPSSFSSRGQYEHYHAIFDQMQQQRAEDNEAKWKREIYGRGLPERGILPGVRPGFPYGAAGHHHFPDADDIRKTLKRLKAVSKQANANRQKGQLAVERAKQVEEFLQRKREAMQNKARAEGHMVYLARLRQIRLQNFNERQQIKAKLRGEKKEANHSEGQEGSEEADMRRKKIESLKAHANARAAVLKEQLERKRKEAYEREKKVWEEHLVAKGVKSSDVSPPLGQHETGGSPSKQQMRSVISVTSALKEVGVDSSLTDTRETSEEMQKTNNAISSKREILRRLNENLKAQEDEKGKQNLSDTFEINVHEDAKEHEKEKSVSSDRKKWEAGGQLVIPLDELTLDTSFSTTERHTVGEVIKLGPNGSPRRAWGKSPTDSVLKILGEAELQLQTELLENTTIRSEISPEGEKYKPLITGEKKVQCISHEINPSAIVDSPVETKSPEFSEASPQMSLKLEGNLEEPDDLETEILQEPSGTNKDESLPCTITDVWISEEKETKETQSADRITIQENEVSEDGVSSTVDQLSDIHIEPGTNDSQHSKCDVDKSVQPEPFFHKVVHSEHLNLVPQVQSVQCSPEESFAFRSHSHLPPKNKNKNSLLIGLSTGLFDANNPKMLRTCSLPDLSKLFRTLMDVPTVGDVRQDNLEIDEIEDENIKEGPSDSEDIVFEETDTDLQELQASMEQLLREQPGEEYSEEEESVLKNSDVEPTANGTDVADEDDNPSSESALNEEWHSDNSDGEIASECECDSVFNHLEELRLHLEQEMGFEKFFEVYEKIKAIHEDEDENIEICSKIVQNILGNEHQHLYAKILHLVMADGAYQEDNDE
T16 sequence (Q7RTN6 whole entry): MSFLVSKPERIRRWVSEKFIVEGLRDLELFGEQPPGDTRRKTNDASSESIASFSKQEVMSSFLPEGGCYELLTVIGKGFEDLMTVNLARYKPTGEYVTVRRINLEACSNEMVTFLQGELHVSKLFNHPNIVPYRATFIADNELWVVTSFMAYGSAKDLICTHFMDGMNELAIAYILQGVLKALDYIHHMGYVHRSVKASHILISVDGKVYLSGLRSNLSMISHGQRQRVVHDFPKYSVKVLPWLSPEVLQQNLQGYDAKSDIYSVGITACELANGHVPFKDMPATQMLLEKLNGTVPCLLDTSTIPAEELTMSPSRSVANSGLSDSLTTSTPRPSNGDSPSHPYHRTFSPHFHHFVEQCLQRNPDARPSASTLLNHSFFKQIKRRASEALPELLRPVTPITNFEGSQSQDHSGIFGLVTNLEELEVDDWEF
T10 sequence (O96017 whole entry): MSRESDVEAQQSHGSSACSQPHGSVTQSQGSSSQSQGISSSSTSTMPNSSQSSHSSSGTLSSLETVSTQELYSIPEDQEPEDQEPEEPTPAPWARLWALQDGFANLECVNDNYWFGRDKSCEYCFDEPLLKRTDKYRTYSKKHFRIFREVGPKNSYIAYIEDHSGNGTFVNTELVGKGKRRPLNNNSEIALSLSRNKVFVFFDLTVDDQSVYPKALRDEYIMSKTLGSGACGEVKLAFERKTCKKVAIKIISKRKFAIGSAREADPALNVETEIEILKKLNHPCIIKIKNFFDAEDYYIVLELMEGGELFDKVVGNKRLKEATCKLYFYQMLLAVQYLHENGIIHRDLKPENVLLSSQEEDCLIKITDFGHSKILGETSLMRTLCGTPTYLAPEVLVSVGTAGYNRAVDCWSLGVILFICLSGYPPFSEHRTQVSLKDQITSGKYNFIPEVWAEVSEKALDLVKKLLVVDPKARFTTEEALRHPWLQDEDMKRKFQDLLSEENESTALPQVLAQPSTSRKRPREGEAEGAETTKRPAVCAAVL
T1 sequence (Q05655 whole entry): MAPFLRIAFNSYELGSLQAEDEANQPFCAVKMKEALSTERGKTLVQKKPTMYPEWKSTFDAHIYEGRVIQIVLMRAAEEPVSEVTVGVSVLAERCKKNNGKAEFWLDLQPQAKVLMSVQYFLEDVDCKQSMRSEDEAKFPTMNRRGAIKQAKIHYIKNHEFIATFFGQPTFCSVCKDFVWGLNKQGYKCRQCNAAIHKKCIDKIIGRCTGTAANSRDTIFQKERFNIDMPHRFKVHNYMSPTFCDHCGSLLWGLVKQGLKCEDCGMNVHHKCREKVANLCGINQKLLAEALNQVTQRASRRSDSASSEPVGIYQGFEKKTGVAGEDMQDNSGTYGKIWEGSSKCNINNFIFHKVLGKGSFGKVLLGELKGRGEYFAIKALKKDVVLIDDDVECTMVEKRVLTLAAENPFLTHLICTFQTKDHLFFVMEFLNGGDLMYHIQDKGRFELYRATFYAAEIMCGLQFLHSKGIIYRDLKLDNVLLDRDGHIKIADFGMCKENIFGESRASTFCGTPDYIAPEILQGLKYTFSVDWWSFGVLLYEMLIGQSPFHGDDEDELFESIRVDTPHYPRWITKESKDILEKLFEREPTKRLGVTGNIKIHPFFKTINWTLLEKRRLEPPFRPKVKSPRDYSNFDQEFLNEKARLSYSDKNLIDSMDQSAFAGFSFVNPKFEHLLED

`Cn1cc(-c2cnc3ccc(NC(=O)Nc4ccc(F)c(C(F)(F)F)c4)cc3n2)cn1` [51-106, 1-(4-Fluoro-3-(trifluoromethyl)phenyl)-3-(3-(1-methyl-1H-pyrazol-4-yl)quinoxalin-6-yl)urea] was tested, and the inhibition at 5 µM (PKCd; Lys2, DLKLDNVLLDR) was 0.4%, the inhibition at 5 µM (PKCd; Other, KPTMYPEWK) was ≤ 0% and the inhibition at 5 µM (CaMKK1) was ≤ 0%. For the same molecule, the inhibition at 5 µM (PIK3CD) was 1.8%, the “MAP3K1 inhibition compared to any other kinase in the panel” value (MAP3K1; 5 μM, 328 quantified kinases) was 2.5 fold and the “% Inhibition” value (MAP3K1; 5 µM, Lys2, DVKGANLLIDSTGQR) was 78%. For the same molecule, the inhibition at 5 µM (MAP3K1; 5 µM, Lys2, DVKGANLLIDSTGQR) was 78.1%, the inhibition at 5 µM (p70S6K) was ≤ 0% and the inhibition at 5 µM (MARK4; Lys1, EVAIKIIDKTQLNPSSLQK) was ≤ 0%. For the same molecule, the inhibition at 5 µM (MARK4; Lys2, DLKAENLLLDAEANIK) was 10.3%, the “% Inhibition” value [1] was “NB (NB = No Binding (≤ 0))” and the inhibition at 5 µM (CDC2; Lys1, TTGQVVAMKK) was 20.3%. The inhibition at 5 µM (CDC2; Lys2, DLKPQNLLIDDK) was ≤ 0%, the inhibition at 5 µM (CDC2; Protein Kinase Domain, KPLFHGDSEIDQLFR) was ≤ 0% and the inhibition at 5 µM (CHK1) was ≤ 0%. For the same molecule, the inhibition at 5 µM (ULK1) was ≤ 0%, the inhibition at 5 µM (CHK2; Lys1, VAIKIISK) was 14.8% and the inhibition at 5 µM (CHK2; Lys2, DLKPENVLLSSQEEDCLIK) was ≤ 0%. The inhibition at 5 µM (YES) was 16%, the inhibition at 5 µM (DGKA) was ≤ 0% and the “% Inhibition” value (MAP2K1, MAP2K2; Lys1, KLIHLEIKPAIR) was “NB (NB = No Binding (≤ 0))”. For the same molecule, the “% Inhibition” value (MAP2K1, MAP2K2; Lys2, DVKPSNILVNSR) was 1.2%, the inhibition at 5 µM (MET) was 8.3% and the inhibition at 5 µM (PIP4K2A; AKELPTLKDNDFINEGQK) was ≤ 0%. For the same molecule, the inhibition at 5 µM (PIP4K2A; YIIKTITSEDVAEMHNILK) was 4.5%, the “% Inhibition” value (MER, TYRO3) was “NB (NB = No Binding (≤ 0))” and the “% Inhibition” value (NEK1; 5 µM, Lys1, QYVIKEINISR) was “NB (NB = No Binding (≤ 0))”. The inhibition at 5 µM (NEK1; Lys2, […]) was ≤ 0%, the “% Inhibition” value (STLK5; 5 µM, Lys2, SVKASHILISVDGK) was “NB (NB = No Binding (≤ 0))” and the inhibition at 5 µM (STLK5; ATP Loop, […]) was ≤ 0%. For the same molecule, the “% Inhibition” value (CDK11, CDK8) was 15.4%, the inhibition at 5 µM (PI4KB; LLSVIVKCGDDLRQELLAFQVLK) was ≤ 0% and the inhibition at 5 µM (PI4KB; VPHTQAVVLNSKDK) was 3.9%. For the same molecule, the inhibition at 5 µM (EphA2) was ≤ 0%, the “% Inhibition” value (p38d, p38g) was “NB (NB = No Binding (≤ 0))” and the inhibition at 5 µM (MAP3K6; 5 µM, Lys2, […]) was ≤ 0%. The “inhibition of MAP3K6 (in words)” value (MAP3K6; 5 μM, PANC-1 lysate) was “did not inhibit” and the inhibition at 5 µM (MST3) was 4.2%.
